Entries after “also recorded” stand apart in the source; their conditions may differ.
Key:
[1] = system: T1, La-WT:fD1-RNA complex; assay: EMSA, compound competition, La-WT:fD1; format: binding, human; conditions: La-WT 60 nM, fD1 50 nM
T1 construct: His; made in house; host or cells: E. coli BL21
Procedure: 12% native TBE polyacrylamide gels were prepared in a Mini-PROTEAN Tetra Handcast System (BioRad). The gel was pre-run for 30 min at 140 V in 1x TBE buffer (45 mM Tris/HCl pH 8.5, 45 mM boric acid, 1 mM EDTA). To prepare the RNA-mix, fluorescence labeled RNA oligoribonucleotides (oligos) were diluted in fluorescence polarization buffer (20 mM Tris/HCl (pH 7.4), 150 mM NaCl, 3.0 mM MgCl2, 0.5 mM EDTA, 0.05% (v/v) IGEPAL), mixed for 10 min at 80°C, and then immediately placed on ice for at least 5 min. All RNA oligos were used at a final concentration of 50 nM. Recombinant La protein was diluted in D-buffer (20 mM Tris/ HCl (pH 7.4), 150mM NaCl, 3mM MgCl2, 0.5mM EDTA, 5% glycerol) and placed on ice until use.
La titration was performed at final concentrations of 20, 40, 60, 100, 200, 300, 400, 500, 600 nM La. Three different La concentrations were used for compound studies: 60 nM for fD1 RNA, 200 nM for fPolyU RNA, and 150 nM for TOPf RNA studies. Two μl of diluted compound (diluted in 100% DMSO) or 2 μl 100% DMSO (control reaction) was combined with 8 μl La-mix in a 96-well plate. 10 μl RNA-mix was added, mixed for 2 min, and incubated for 10 min at RT in the dark. Final concentrations in the reaction: 18 mM Tris/HCl (pH 7.4), 135 mM NaCl, 2.7 mM MgCl2, 0.45 mM EDTA, 0.025% (v/v) IGEPAL, 2% glycerol, 10% DMSO). Samples were loaded onto the pre-run gel without any loading buffer. Gels were run at 160 V for 40 min in the dark. The gels were carefully transferred to a clear plastic wrap and scanned using a Typhoon FLA900 imager. The La-RNA complex (La-RNP) formation was quantified using the ImageQuant TL software.
Next we used our established EMSA to test whether compound C2 and C6 can compete against the three RNA oligos: fD1, fPolyU, and TOPf. All of the EMSA reactions were loaded in the following order: lane 1 contains the RNA oligo alone; lane 2 contains the RNA oligo plus La protein at concentration that shifts 50% of the RNA oligo (positive control); lanes 3–9 contain the RNA oligo, La protein and decreasing concentrations of the compound; and lane 10 contains the RNA oligo and the highest compound concentration (negative control).

[2] = system: SCC 22B cells; assay: Cell toxicity, CyQUANT cell number, SCC 22B; format: cell-based, human; conditions: for effect on SCC 22B cell numbers: 12.5-150 μM
Procedure: (§1) Normal fibroblast MRC5 and human embryonic kidney HEK293 cells were purchased from ATCC. Head and neck squamous cell carcinoma cell lines UM-SCC 22A (SCC 22A) and UM-SCC 22B (SCC 22B) were described elsewhere. MRC5 cells were cultured in EMEM plus 10% FBS; SCC 22A, SCC 22B, and HEK293 cells were cultured in advanced DMEM (Gibco) containing 2 mM L-glutamine (Life Technology) and 10% FBS. All cell lines were tested for mycoplasma contamination by applying a MycoSensor PCR Assay kit according to the manufacturer’s instructions (Agilent Technologies).
(§2) To test for cell toxicity the compounds were dissolved in 100% DMSO to a concentration of 100 mM. Subsequently, compounds were diluted in media to 10 mM (10% DMSO), 1 mM (1% DMSO) and tested at 150, 125, 100, 75, 50, 25 μM in SCC 22B and MRC5 cells. To reach this concentration compounds (stock 1 mM, 1% DMSO) were diluted in the cell culture dish (96-well format, 100 μl final volume) as follows: 150 μM = 6.7 fold (final DMSO: 0.15%); 125 μM = 8.0 fold (final DMSO: 0.125%); 100 μM = 10 fold (final DMSO: 0.1%); 75 μM = 13.3 fold (final DMSO: 0.075%); 50 μM = 20 fold (final DMSO: 0.05%); and 25 μM = 40 fold (final DMSO: 0.025%). As a control the highest DMSO concentration of 0.15% was used. Cells were cultured in appropriate media (see above) for 48h. Subsequently, cells were washed twice with 1x PBS and quantified after staining with fluorescence dye (CyQUANT®, Life Technologies). For this experiments 3x10^4 of MRC5 and 1x10^4 SCC 22B cells were plate the day before the experiment.

[3] = system: MRC5 cells; assay: Cell toxicity, CyQUANT cell number, MRC5; format: cell-based, human; conditions: 48 h, up to 150 μM
Procedure: as §1, §2

| Compound | concentration impairing La:fD1 complex formation (EMSA) ([1]; highest concentration tested) [mM] | effect on SCC 22B cell numbers ([2]; 48 h) | toxic effect on MRC5 cells (normal fibroblasts) [3] | concentration inhibiting La:fD1 complex formation (EMSA) [1] [µM] | competition for La:fD1 interaction (EMSA), in words [1] | tolerance by SCC 22B cells ([2]; 50 μM, 48 hours) | cytotoxic concentration in SCC 22B cells ([2]; 48 h) | selectivity: cancer cell numbers compared to effect on normal MRC5 cells ([2]; SCC 22B versus MRC5, 48 h) |
| --- | --- | --- | --- | --- | --- | --- | --- | --- |
| O=C(O)c1ccccc1C(=O)c1ccc(O)cc1O [C2, 2-(2,4-dihydroxybenzoyl)benzoic acid] | 10 | no effect | no toxic effect |  |  |  |  |  |
| CCOC(=O)c1ccc2c(c1)C1C=CCC1C(C(=O)O)N2 (centres unmarked) [C6, 8-(ethoxycarbonyl)-3a,4,5,9b-tetrahydro-3Hcyclopenta[c]quinoline-4-carboxylic acid] |  | reduced SCC 22B cell numbers even at low concentrations | toxic effect | 10 |  |  |  |  |
| Cc1ccc(C(=O)c2ccccc2C(=O)O)c(O)c1 [C2.01, 2-(2-hydroxy-4-methylbenzoyl)benzoic acid] |  |  | no toxic effect |  | lower concentration; also recorded: weak competitor | well tolerated | higher than 50 μM | preferentially reduced cancer cell numbers |

Source: article PMC5349447, “Applying a high-throughput fluorescence polarization assay for the discovery of chemical probes blocking La:RNA interactions in vitro and in cells” (PLoS ONE, 2017)
